Measured values: PubChem BioAssay (NCI)
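1) Cells in 96-well plates. 2) Compound, 48 h, 5 concentrations. 3) Linear interpolation between surrounding doses. 4) Unreached endpoint = highest concentration. The concentration for full growth arrest is given as TGI.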

What was measured:
Assay in all cases: inhibition of tumour cell growth, NCI panel, 48 h
[1] = tested on: 786-0 renal
[2] = tested on: A549 NSCLC
[3] = tested on: COLO 205 colon
[4] = tested on: DLD-1 colon
[5] = tested on: HCT-116 colon
[6] = tested on: HCT-15 colon
[7] = tested on: KM12 colon
[8] = tested on: LOX IMVI melanoma
[9] = tested on: M14 melanoma
[10] = tested on: MOLT-4 leukemia
[11] = tested on: NCI-H460 lung
[12] = tested on: SF-295 CNS
[13] = tested on: SN12C renal
[14] = tested on: SNB-19 CNS
[15] = tested on: SR leukemia
[16] = tested on: TK-10 renal
[17] = tested on: UACC-62 melanoma

Work on `N#CC1=C(c2ccccc2)C(=C2Nc3ccccc3N2)C2S/C(=C\c3ccccc3)C(=O)N2C1=N` (stereo not drawn) yielded a TGI [1] of 6.09 µM, a TGI [2] of 12.9 µM and a TGI [3] of 20.5 µM. For the same compound, the TGI [4] was 12 µM, the TGI [5] was 10.9 µM and the TGI [6] was 10.3 µM. The TGI [7] was 15.1 µM, the TGI [8] was 3.43 µM and the TGI [9] was 6.56 µM. It also gave a TGI [10] of 7.79 µM, a TGI [11] of 10.2 µM and a TGI [12] of 6.21 µM. The TGI [13] was 11.4 µM, the TGI [14] was 11.7 µM and the TGI [15] was 4.87 µM. The TGI [16] was 4.78 µM and the TGI [17] was 4.76 µM.
Compound `NC(=O)/C(=N\NC(=O)C[n+]1ccccc1)C1NC(=O)NC1=O` (stereo not drawn) has a TGI [1] greater than 100 µM, a TGI [2] greater than 100 µM and a TGI [3] greater than 100 µM. It also gave a TGI [4] greater than 100 µM, a TGI [5] greater than 100 µM and a TGI [6] greater than 100 µM. For the same compound, the TGI [7] was greater than 100 µM, the TGI [8] was greater than 100 µM and the TGI [9] was greater than 100 µM. It also gave a TGI [10] greater than 100 µM, a TGI [11] greater than 100 µM and a TGI [12] greater than 100 µM. It also gave a TGI [13] greater than 100 µM, a TGI [14] greater than 100 µM and a TGI [15] greater than 100 µM. For the same compound, the TGI [16] was greater than 100 µM and the TGI [17] was greater than 100 µM.
In the case of `Cc1nc(N2N=C(c3ccc(Cl)cc3)CCC2=O)sc1[N+](=O)[O-]`, the TGI [1] is reported as greater than 100 µM, the TGI [2] is reported as greater than 100 µM and the TGI [3] is reported as greater than 100 µM. The TGI [4] was greater than 100 µM, the TGI [5] was greater than 100 µM and the TGI [6] was greater than 100 µM. The TGI [7] was greater than 100 µM, the TGI [8] was greater than 100 µM and the TGI [9] was greater than 100 µM. The TGI [10] was greater than 100 µM, the TGI [11] was greater than 100 µM and the TGI [12] was greater than 100 µM. The TGI [13] was greater than 100 µM, the TGI [14] was greater than 100 µM and the TGI [15] was greater than 100 µM. The TGI [16] was greater than 100 µM and the TGI [17] was greater than 100 µM.
`CCOC(=O)C(C(=O)OCC)c1ccc([N+](=O)[O-])o1` showed a TGI [1] of 13.4 µM, a TGI [2] of 43.4 µM and a TGI [3] of 10.4 µM. It also gave a TGI [4] of 18.6 µM, a TGI [5] of 29 µM and a TGI [6] of 33.6 µM. For the same compound, the TGI [7] was 33.9 µM, the TGI [8] was 9.41 µM and the TGI [9] was 26.6 µM. The TGI [10] was 19.8 µM, the TGI [11] was 44.9 µM and the TGI [12] was 36.8 µM. The TGI [13] was 32.2 µM, the TGI [14] was greater than 100 µM and the TGI [15] was greater than 26.4 µM. For the same compound, the TGI [16] was 30.8 µM and the TGI [17] was 35.9 µM.
